Laboratory results published in patent publication US8952024B2, “Herbicidal pyrimidone derivatives” (E I du Pont de Nemours and Company, priority 2009, dated 2015).

Key:
Test in all cases: Test B pre-/postemergence plant response
Format in all cases: in vivo
[1] = tested on: Surinam grass (Brachiaria decumbens)
How it was run: (§1)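 Greenhouse herbicide screen. Pre- and postemergence (1- to 4-leaf) spray of compound in solvent/surfactant mixture; loam–sand soil for pre, peat/vermiculite medium for post. Visual control rating 0–100 at 13 to 15 days after treatment.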

[2] = tested on: blackgrass (Alopecurus myosuroides)
How it was run: as §1

[3] = tested on: cocklebur (Xanthium strumarium)
How it was run: as §1

[4] = tested on: corn (Zea mays)
How it was run: as §1

[5] = tested on: downy bromegrass (Bromus tectorum)
How it was run: as §1

[6] = tested on: giant foxtail (Setaria faberii)
How it was run: as §1

[7] = tested on: goosegrass (Eleusine indica)
How it was run: as §1

[8] = tested on: green foxtail (Setaria viridis)
How it was run: as §1

[9] = tested on: johnsongrass (Sorghum halepense)
How it was run: as §1

[10] = tested on: kochia (Kochia scoparia); settings: Postemergence; for Plant response rating, Kochia: scale 0 (no effect) to 100 (complete control)
How it was run: as §1

[11] = tested on: large crabgrass (Digitaria sanguinalis)
How it was run: as §1

[12] = tested on: morningglory (Ipomoea coccinea)
How it was run: as §1

[13] = tested on: soybean (Glycine max)
How it was run: as §1

[14] = tested on: velvetleaf (Abutilon theophrasti)
How it was run: as §1

[15] = tested on: wild oat (Avena fatua)
How it was run: as §1

[16] = tested on: woolly cupgrass (Eriochloa villosa)
How it was run: as §1

[17] = tested on: yellow nutsedge (Cyperus esculentus)
How it was run: as §1

[18] = 250 g ai/ha, Preemergence, 0 to 100 scale
[19] = Postemergence, 62 g ai/ha, scale 0 (no effect) to 100 (complete control), 13 to 15 days
[20] = Postemergence, 125 g ai/ha, visual rating after 13 to 15 days, scale 0 (no effect) to 100 (complete control)
[21] = Preemergence, 31 g ai/ha, scale 0 to 100 (0 no effect, 100 complete control)
[22] = Preemergence, 62 g ai/ha, scale 0 to 100, 0 no effect, 100 complete control
[23] = Preemergence, 125 g ai/ha, 0 to 100 scale
[24] = Postemergence, 31 g ai/ha, scale 0 to 100 (0 no effect, 100 complete control)
[25] = Postemergence, 250 g ai/ha, scale 0 to 100

O=C1CCCC(O)=C1C(=O)c1cnc(-c2cccc(Cl)c2)n(-c2ccccc2)c1=O [Compound 34]
Plant response rating, Surinam Grass [1, 18]: 90 | Plant response rating, Surinam Grass [1, 19]: 75 | Plant response rating, Surinam Grass [1, 20]: 80 | Plant response rating, Surinam Grass [1, 21]: 5 | Plant response rating, Surinam Grass [1, 22]: 60 | Surinam Grass plant response rating [1, 23]: 65 | Plant response rating, Blackgrass [2, 18]: 50 | Plant response rating, Blackgrass [2, 24]: 0 | Plant response rating, Blackgrass [2, 19]: 5 | Plant response rating, Blackgrass [2, 20]: 10 | Blackgrass plant response rating [2, 25]: 40 | Plant response rating, Blackgrass [2, 21]: 0 | Plant response rating, Blackgrass [2, 22]: 5 | Blackgrass plant response rating [2, 23]: 50 | Plant response rating, Cocklebur [3, 18]: 85 | Plant response rating, Cocklebur [3, 24]: 0 | Plant response rating, Cocklebur [3, 19]: 25 | Plant response rating, Cocklebur [3, 20]: 85 | Cocklebur plant response rating [3, 25]: 95 | Plant response rating, Cocklebur [3, 21]: 0 | Plant response rating, Cocklebur [3, 22]: 55 | Cocklebur plant response rating [3, 23]: 75 | Plant response rating, Corn [4, 18]: 0 | Plant response rating, Corn [4, 24]: 0 | Plant response rating, Corn [4, 19]: 0 | Plant response rating, Corn [4, 20]: 45 | Corn plant response rating [4, 25]: 50 | Plant response rating, Corn [4, 21]: 0 | Plant response rating, Corn [4, 22]: 0 | Corn plant response rating [4, 23]: 0 | Plant response rating, Bromegrass, Downy [5, 18]: 80 | Plant response rating, Bromegrass, Downy [5, 24]: 40 | Plant response rating, Bromegrass, Downy [5, 19]: 50 | Plant response rating, Bromegrass, Downy [5, 20]: 50 | Bromegrass, Downy plant response rating [5, 25]: 50 | Plant response rating, Bromegrass, Downy [5, 22]: 0 | Bromegrass, Downy plant response rating [5, 23]: 10 | Plant response rating, Foxtail, Giant [6, 18]: 100 | Plant response rating, Foxtail, Giant [6, 24]: 85 | Plant response rating, Foxtail, Giant [6, 19]: 90 | Plant response rating, Foxtail, Giant [6, 20]: 95 | Foxtail, Giant plant response rating [6, 25]: 95 | Plant response rating, Foxtail, Giant [6, 21]: 15 | Plant response rating, Foxtail, Giant [6, 22]: 55 | Foxtail, Giant plant response rating [6, 23]: 90 | Plant response rating, Goosegrass [7, 18]: 100 | Plant response rating, Goosegrass [7, 19]: 80 | Plant response rating, Goosegrass [7, 20]: 90 | Goosegrass plant response rating [7, 25]: 95 | Plant response rating, Goosegrass [7, 21]: 95 | Goosegrass plant response rating [7, 23]: 100 | Plant response rating, Foxtail, Green [8, 18]: 100 | Plant response rating, Foxtail, Green [8, 24]: 70 | Plant response rating, Foxtail, Green [8, 19]: 90 | Plant response rating, Foxtail, Green [8, 20]: 90 | Foxtail, Green plant response rating [8, 25]: 95 | Plant response rating, Foxtail, Green [8, 21]: 50 | Plant response rating, Foxtail, Green [8, 22]: 70 | Foxtail, Green plant response rating [8, 23]: 90 | Plant response rating, Johnsongrass [9, 18]: 100 | Plant response rating, Johnsongrass [9, 19]: 90 | Plant response rating, Johnsongrass [9, 20]: 95 | Johnsongrass plant response rating [9, 25]: 100 | Plant response rating, Johnsongrass [9, 21]: 20 | Plant response rating, Johnsongrass [9, 22]: 75 | Johnsongrass plant response rating [9, 23]: 98 | Plant response rating, Kochia ([10]; 62 g ai/ha, 13 to 15 days): 95 | Plant response rating, Kochia ([10]; 125 g ai/ha, visual rating after 13 to 15 days): 100 | Kochia plant response rating ([10]; 250 g ai/ha, scale 0 to 100): 100 | Plant response rating, Crabgrass, Large [11, 18]: 100 | Plant response rating, Crabgrass, Large [11, 24]: 80 | Plant response rating, Crabgrass, Large [11, 19]: 85 | Plant response rating, Crabgrass, Large [11, 20]: 95 | Crabgrass, Large plant response rating [11, 25]: 98 | Plant response rating, Crabgrass, Large [11, 21]: 55 | Plant response rating, Crabgrass, Large [11, 22]: 100 | Crabgrass, Large plant response rating [11, 23]: 100 | Plant response rating, Morningglory [12, 18]: 98 | Plant response rating, Morningglory [12, 19]: 80 | Plant response rating, Morningglory [12, 20]: 85 | Plant response rating, Morningglory [12, 21]: 0 | Plant response rating, Morningglory [12, 22]: 0 | Morningglory plant response rating [12, 23]: 75 | Plant response rating, Soybean [13, 18]: 80 | Plant response rating, Soybean [13, 19]: 95 | Plant response rating, Soybean [13, 20]: 95 | Plant response rating, Soybean [13, 21]: 0 | Plant response rating, Soybean [13, 22]: 45 | Soybean plant response rating [13, 23]: 65 | Plant response rating, Velvetleaf [14, 18]: 100 | Plant response rating, Velvetleaf [14, 19]: 95 | Plant response rating, Velvetleaf [14, 20]: 98 | Plant response rating, Velvetleaf [14, 21]: 75 | Plant response rating, Velvetleaf [14, 22]: 85 | Velvetleaf plant response rating [14, 23]: 95 | Plant response rating, Oat, Wild [15, 18]: 60 | Plant response rating, Oat, Wild [15, 19]: 50 | Plant response rating, Oat, Wild [15, 20]: 60 | Plant response rating, Oat, Wild [15, 21]: 10 | Plant response rating, Oat, Wild [15, 22]: 10 | Oat, Wild plant response rating [15, 23]: 30 | Plant response rating, Cupgrass, Woolly [16, 18]: 100 | Plant response rating, Cupgrass, Woolly [16, 24]: 80 | Plant response rating, Cupgrass, Woolly [16, 19]: 80 | Plant response rating, Cupgrass, Woolly [16, 20]: 90 | Cupgrass, Woolly plant response rating [16, 25]: 95 | Plant response rating, Cupgrass, Woolly [16, 21]: 100 | Plant response rating, Cupgrass, Woolly [16, 22]: 100 | Cupgrass, Woolly plant response rating [16, 23]: 100 | Plant response rating, Nutsedge, Yellow [17, 18]: 90 | Plant response rating, Nutsedge, Yellow [17, 19]: 25 | Plant response rating, Nutsedge, Yellow [17, 20]: 55 | Plant response rating, Nutsedge, Yellow [17, 21]: 10 | Plant response rating, Nutsedge, Yellow [17, 22]: 45 | Nutsedge, Yellow plant response rating [17, 23]: 75
